Counter-ions that a name gives are not always drawn. Like-named read-outs stand apart in the source and are kept apart here.
Key:
TRPML1 = target: T1, TRPML1 (Homo sapiens, UniProt Q9GZU1); experiment: Cellular TRPML1 assay (FLIPR, GCaMP6f calcium read-out); assay type: cell-based
T1 construct: expressed in transfected cells; host or cells: HEK T-REx cells stably expressing GCaMP6f and TRPML1
Summary of the method: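 HEK T-REx cells stably expressing TRPML1 and GCaMP6f, seeded 24 h before in Optimem + 0.5% FBS. After ~10 min pre-incubation at room temperature, compounds in Ca2+-free Tyrode's buffer were injected on FLIPR Tetra (final DMSO 0.5%). Calcium fluorescence kinetics followed for 300 s.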

TFEB = TFEB translocation assay (TFEB reporter in U2OS cells, imaging); assay type: cell-based; conditions: Homo sapiens; U2OS cell line with TFEB reporter, 2 hours incubation, nucleus to cytoplasm ratio, normalized to Torin-1; read-out: TFEB Translocation pEC50 (converted)
Experimental: Example B: TFEB Translocation Assay
Reporter TFEB: the reporter is fused to a sequence of monomeric red fluorescent protein.
The reporter TFEB have been stably expressed in U2OS cell line and used as read-out.
Experiments were performed in 384 MTP well format. Cells were seeded in 384-w at a density of 4000 cells/well in 20 μl/well complete growth medium without antibiotics. Twenty-four hours later, cells were treated with compounds and incubated for further 2 hours. Then the cells were imaged and assayed for the response to various compounds using the reporter for TFEB expressed in the cells as readout.
The experiments were performed in a 384-well format according to the following procedure: • 24 h after seeding, cell culture medium was carefully removed and replaced with 20 μl of Opti-MEM (30′ incubation at 37° C. before compound addition) • Then, cells were incubated with compounds diluted in Opti-MEM+0.015% Tween 80 at the desired concentration, with the reference molecule (agonist) Torin-1 at a top concentration of 1 μM (max signal), and with the other reference molecule (agonist) MLSA-5 at top concentration of 20 μM for 2 hours at 37° C. and 5% CO2. The final percentage of DMSO was 0.5% in all the conditions. • Staining of the nuclei was obtained by incubating the cells with 24 μM/well of Hoechst 3342 in standard Tyrode's buffer for 15 min at RT • Then the cells were fixed with PFA 4% for 30 min at RT • After three washes with standard Tyrode's buffer, samples were acquired by recording two fluorescence emission channels (DS-red and blue) at 20× magnification and with at least 3 fields of view per well in an Operetta CLS microscope (PerkinElmer). • Image analysis was performed by using Harmony software (PerkinElmer). The image analysis involved the following steps: flat-field illumination correction, nuclei segmentation, cytoplasm segmentation and calculation of intensity fluorescence in the cytosol and nuclei compartments. Measurements of signal intensity ratio (nucleus to cytoplasm) was used to obtain information on the effects of compounds on the TFEB translocation. • Data from image analysis measurements were finally loaded and analyzed for normalization and fitting procedures in Genedata Screener© software. Data Analysis
Feature: Mean translocation ratio (mean/well)
Data normalization: Stimulator—Neutral control
The GeneData Screener method we have used, normalizes the median of the Stimulator control wells (Torin-1) to 100% and the median of the Neutral control wells (DMSO) to 0% Activity[%]=100*(x−<Min>)/(<“Max”>−<Min>)

[1] = HEKT-REx/GCaMP6f/TRPML1 cells, FLIPR TETRA, kinetic response over 300 seconds, read-out: TRPML1 FLIPR pEC50 (converted)

T1 sequence (Q9GZU1 whole entry): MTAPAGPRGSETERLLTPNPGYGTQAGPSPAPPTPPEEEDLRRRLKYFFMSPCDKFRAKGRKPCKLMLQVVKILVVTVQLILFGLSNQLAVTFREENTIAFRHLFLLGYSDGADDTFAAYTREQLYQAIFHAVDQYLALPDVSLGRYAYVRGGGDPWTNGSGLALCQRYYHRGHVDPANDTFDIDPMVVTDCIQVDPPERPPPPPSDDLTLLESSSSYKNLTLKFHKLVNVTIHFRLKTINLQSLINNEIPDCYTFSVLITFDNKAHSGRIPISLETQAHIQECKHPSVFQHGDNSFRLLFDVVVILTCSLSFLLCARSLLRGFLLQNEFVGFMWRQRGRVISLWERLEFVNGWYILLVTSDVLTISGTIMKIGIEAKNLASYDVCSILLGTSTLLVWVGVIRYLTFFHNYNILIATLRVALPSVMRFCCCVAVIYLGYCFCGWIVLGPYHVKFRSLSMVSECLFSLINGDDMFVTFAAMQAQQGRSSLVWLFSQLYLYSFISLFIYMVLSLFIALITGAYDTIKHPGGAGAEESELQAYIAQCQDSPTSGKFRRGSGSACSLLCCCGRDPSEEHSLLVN

Compound	EC50 (TRPML1; [1]) [µM]	EC50 (TFEB) [µM]	EC50 (TRPML1) [µM]
CCN(C)Cc1oc(N2CC(C)(OC)C2)nc1C(=O)Nc1cc(F)c(OC2CC3CC(C3)C2)c(F)c1 (centres unmarked) [Example 307, N-(4-(bicyclo[3.1.1]heptan-3-yloxy)-3,5-difluorophenyl)-5-((ethyl(methyl)amino)methyl)-2-(3-methoxy-3-methylazetidin-1-yl)oxazole-4-carboxamide hydrochloride]	0.01 to 1	0.01 to 1	–
COC1(C)CN(c2nc(C(=O)Nc3cc(F)c(O[C@@H]4C[C@@H]5C[C@@H]5C4)c(Cl)c3)c(CC(F)(F)F)o2)C1 [Example 130, N-(4-(cis-bicyclo[3.1.0]hexan-3-yloxy)-3-chloro-5-fluorophenyl)-2-(3-methoxy-3-methylazetidin-1-yl)-5-(2,2,2-trifluoroethyl)oxazole-4-carboxamide]	0.01 to 1	0.01 to 1	–
CCc1oc(N2CC(C)(OC)C2)nc1C(=O)Nc1cc(F)c(O[C@@H]2C[C@@H]3C[C@@H]3C2)c(F)c1 [Example 239, N-(4-(cis-bicyclo[3.1.0]hexan-3-yloxy)-3,5-difluorophenyl)-5-ethyl-2-(3-methoxy-3-methylazetidin-1-yl)oxazole-4-carboxamide]	0.01 to 1	0.01 to 1	–
CCC1(OC)CN(c2nc(C(=O)Nc3cc(F)c(N4C5CCCC4CC5)c(F)c3)c(CC(F)(F)F)o2)C1 [Example 206, N-(4-(8-azabicyclo[3.2.1]octan-8-yl)-3,5-difluorophenyl)-2-(3-ethyl-3-methoxyazetidin-1-yl)-5-(2,2,2-trifluoroethyl)oxazole-4-carboxamide]	–	0.01 to 1	0.01 to 1
CC1CCCN1c1nc(C(=O)Nc2ccc(OC3CCCC3)c(F)c2)c(CC(F)(F)F)o1 (centres unmarked) [Example 54, N-(4-(cyclopentyloxy)-3-fluorophenyl)-2-(2-methylpyrrolidin-1-yl)-5-(2,2,2-trifluoroethyl)oxazole-4-carboxamide]	1 to 10	10 to 100	–
CCc1oc(N2CC(CC)(CC)C2)nc1C(=O)Nc1cc(F)c(O[C@@H]2C[C@@H]3C[C@@H]3C2)c(Cl)c1 [Example 221, N-(4-(cis-bicyclo[3.1.0]hexan-3-yloxy)-3-chloro-5-fluorophenyl)-2-(3,3-diethylazetidin-1-yl)-5-ethyloxazole-4-carboxamide]	0.01 to 1	0.01 to 1	–
CCc1oc(N2CCC3(CC3)C2)nc1C(=O)Nc1cc(F)c(O[C@@H]2C[C@@H]3C[C@@H]3C2)c(F)c1 [Example 235, N-(4-(cis-bicyclo[3.1.0]hexan-3-yloxy)-3,5-difluorophenyl)-5-ethyl-2-(5-azaspiro[2.4]heptan-5-yl)oxazole-4-carboxamide]	0.01 to 1	0.01 to 1	–
O=C(Nc1cc(F)c(OC2CC3C[C@@H]3C2)c(F)c1)c1nc(N2CC3COCC3C2)oc1CC(F)(F)F (stereo partly drawn) [Example 186, N-(4-(cis-bicyclo[3.1.0]hexan-3-yloxy)-3,5-difluorophenyl)-2-(tetrahydro-1H-furo[3,4-c]pyrrol-5(3H)-yl)-5-(2,2,2-trifluoroethyl)oxazole-4-carboxamide]	0.01 to 1	0.01 to 1	–
O=C(Nc1cc(F)c(OC2CC3C[C@@H]3C2)c(F)c1)c1nc(N2CC3CCC3C2)oc1CC(F)(F)F (stereo partly drawn) [Example 177, N-(4-(cis-bicyclo[3.1.0]hexan-3-yloxy)-3,5-difluorophenyl)-2-(3-azabicyclo[3.2.0]heptan-3-yl)-5-(2,2,2-trifluoroethyl)oxazole-4-carboxamide]	0.01 to 1	0.01 to 1	–
O=C(Nc1ccc(OC2CCCC2(F)F)c(F)c1)c1nc(N2CCC3(CC3)C2)oc1CC(F)(F)F (centres unmarked) [Example 21, N-(4-((2,2-difluorocyclopentyl)oxy)-3-fluorophenyl)-2-(5-azaspiro[2.4]heptan-5-yl)-5-(2,2,2-trifluoroethyl)oxazole-4-carboxamide]	0.01 to 1	0.01 to 1	–
CCc1oc(N2CC3CCCC3C2)nc1C(=O)Nc1cc(F)c(OC2CC3C[C@H]3C2)c(F)c1 (stereo partly drawn) [Example 240, N-(4-(cis-bicyclo[3.1.0]hexan-3-yloxy)-3,5-difluorophenyl)-5-ethyl-2-(hexahydrocyclopenta[c]pyrrol-2(1H)-yl)oxazole-4-carboxamide]	0.01 to 1	0.01 to 1	–
CC(C)OCc1oc(N2CCCC2)nc1C(=O)Nc1ccc(N2CCCCC2)c(F)c1 [Example 108, N-(3-fluoro-4-(piperidin-1-yl)phenyl)-5-(isopropoxymethyl)-2-(pyrrolidin-1-yl)oxazole-4-carboxamide]	1 to 10	0.01 to 1	–
CCC1(CC)CN(c2nc(C(=O)Nc3cc(C)c(OC4CC5CC(C5)C4)c(O)c3)c(CC(F)(F)F)o2)C1 (centres unmarked) [Example 260, N-(4-(bicyclo[3.1.1]heptan-3-yloxy)-3-hydroxy-5-methylphenyl)-2-(3,3-diethylazetidin-1-yl)-5-(2,2,2-trifluoroethyl)oxazole-4-carboxamide]	0.01 to 1	0.01 to 1	–
COC1(C)CN(c2nc(C(=O)Nc3cc(F)c(O[C@@H]4C[C@@H]5C[C@@H]5C4)c(F)c3)c(CCF)o2)C1 [Example 276, N-(4-(cis-bicyclo[3.1.0]hexan-3-yloxy)-3,5-difluorophenyl)-5-(2-fluoroethyl)-2-(3-methoxy-3-methylazetidin-1-yl)oxazole-4-carboxamide]	0.01 to 1	0.01 to 1	–
CC1(C)CN(c2nc(C(=O)Nc3ccc(OC4CCC5CC54)c(F)c3)c(CC(F)(F)F)o2)C1 (centres unmarked) [Example 140, N-(4-(bicyclo[3.1.0]hexan-2-yloxy)-3-fluorophenyl)-2-(3,3-dimethylazetidin-1-yl)-5-(2,2,2-trifluoroethyl)oxazole-4-carboxamide]	1 to 10	0.01 to 1	–
CC1CCC(Oc2ccc(NC(=O)c3nc(N4CCCC4)oc3CC(F)(F)F)cc2F)C1 (centres unmarked) [Example 50, N-(3-fluoro-4-((3-methylcyclopentyl)oxy)phenyl)-2-(pyrrolidin-1-yl)-5-(2,2,2-trifluoroethyl)oxazole-4-carboxamide]	1 to 10	1 to 10	–
CCC1(CC)CN(c2nc(C(=O)Nc3cc(C)c(N4C5CCCC4CC5)c(F)c3)c(CCF)o2)C1 [Example 289, N-(4-(8-azabicyclo[3.2.1]octan-8-yl)-3-fluoro-5-methylphenyl)-2-(3,3-diethylazetidin-1-yl)-5-(2-fluoroethyl)oxazole-4-carboxamide]	–	0.01 to 1	0.01 to 1
Cc1oc(-n2cccn2)nc1C(=O)Nc1ccc(N2CCCCC2)c(F)c1 [Example 118, N-(3-fluoro-4-(piperidin-1-yl)phenyl)-5-methyl-2-(1H-pyrazol-1-yl)oxazole-4-carboxamide]	10 to 100	1 to 10	–
O=C(Nc1ccc(OC2CCCC2(F)F)c(F)c1)c1nc(N2CCC3(CCOC3)C2)oc1CC(F)(F)F (centres unmarked) [Example 13, N-(4-((2,2-difluorocyclopentyl)oxy)-3-fluorophenyl)-2-(2-oxa-7-azaspiro[4.4]nonan-7-yl)-5-(2,2,2-trifluoroethyl)oxazole-4-carboxamide]	1 to 10	1 to 10	–
CCc1oc(N2CC3(C2)CC(F)(F)C3)nc1C(=O)Nc1cc(F)c(N2CC3CC(C3)C2)c(F)c1 [Example 259, N-(4-(3-azabicyclo[3.1.1]heptan-3-yl)-3,5-difluorophenyl)-2-(6,6-difluoro-2-azaspiro[3.3]heptan-2-yl)-5-ethyloxazole-4-carboxamide]	1 to 10	0.01 to 1	–
CCC1(CO)CN(c2nc(C(=O)Nc3cc(F)c(O[C@@H]4C[C@@H]5C[C@@H]5C4)c(Cl)c3)c(CC(F)(F)F)o2)C1 [Example 126, N-(4-(cis-bicyclo[3.1.0]hexan-3-yloxy)-3-chloro-5-fluorophenyl)-2-(3-ethyl-3-(hydroxymethyl)azetidin-1-yl)-5-(2,2,2-trifluoroethyl)oxazole-4-carboxamide]	0.01 to 1	0.01 to 1	–
CCC1(CC)CN(c2nc(C(=O)Nc3cc(F)c(O[C@@H]4C[C@@H]5C[C@@H]5C4)c(F)c3)c(CN3CCCC3)o2)C1 [Example 299, N-(4-(cis-bicyclo[3.1.0]hexan-3-yloxy)-3,5-difluorophenyl)-2-(3,3-diethylazetidin-1-yl)-5-(pyrrolidin-1-ylmethyl)oxazole-4-carboxamide]	0.01 to 1	0.01 to 1	–

From US12098145B2 (Libra Therapeutics, Inc., priority 2022, dated 2024)
